≈ marks a conversion by molar mass, not a printed value. Calls of active or inactive are those of the source. The rule behind the calls is not given here.
Tests used:
Enterococcus faecium [1] = experiment: Antibacterial activity against vancomycin resistant Enterococcus faecium VanB clinical isolate by broth microdilution method; format: functional
Staphylococcus capitis [2] = experiment: Antibacterial activity against methicillin resistant coagulase-negative Staphylococcus capitis clinical isolate assessed as susceptibility level by broth microdilution method; format: functional
Staphylococcus aureus [3] = experiment: Antibacterial activity against methicillin resistant Staphylococcus aureus clinical isolate assessed as susceptibility level by broth microdilution method; format: functional
Streptococcus pyogenes [4] = experiment: Antibacterial activity against Streptococcus pyogenes group A clinical isolate assessed as susceptibility level by broth microdilution method; format: functional
Enterococcus faecium [5] = experiment: Antibacterial activity against vancomycin resistant Enterococcus faecium VanA clinical isolate assessed as susceptibility level by broth microdilution method; format: functional
Streptococcus viridans [6] = experiment: Antibacterial activity against Streptococcus viridans clinical isolate assessed as susceptibility level by broth microdilution method; format: functional
Enterococcus faecium [7] = experiment: Antibacterial activity against vancomycin resistant Enterococcus faecium VanA clinical isolate by broth microdilution method; format: functional
[8] = system: Staphylococcus auricularis; experiment: Antibacterial activity against methicillin resistant coagulase-negative Staphylococcus auricularis clinical isolate by broth microdilution method; format: functional
Streptococcus agalactiae [9] = experiment: Antibacterial activity against Streptococcus agalactiae group B clinical isolate by broth microdilution method; format: functional
Enterococcus faecalis [10] = experiment: Antibacterial activity against vancomycin resistant Enterococcus faecalis VanA clinical isolate by broth microdilution method; format: functional
Staphylococcus capitis [11] = experiment: Antibacterial activity against methicillin resistant coagulase-negative Staphylococcus capitis clinical isolate by broth microdilution method; format: functional
[12] = system: Staphylococcus saprophyticus; experiment: Antibacterial activity against methicillin resistant coagulase-negative Staphylococcus saprophyticus clinical isolate assessed as susceptibility level by broth microdilution method; format: functional
Streptococcus agalactiae [13] = experiment: Antibacterial activity against Streptococcus agalactiae group B clinical isolate assessed as susceptibility level by broth microdilution method; format: functional
[14] = Antibacterial activity against methicillin resistant coagulase-negative Staphylococcus hominis subsp. novobiosepticus clinical isolate assessed as susceptibility level by broth microdilution method; format: functional
[15] = system: Staphylococcus saprophyticus; experiment: Antibacterial activity against methicillin resistant coagulase-negative Staphylococcus saprophyticus clinical isolate by broth microdilution method; format: functional
Streptococcus pyogenes [16] = experiment: Antibacterial activity against Streptococcus pyogenes group A clinical isolate by broth microdilution method; format: functional
[17] = system: Staphylococcus epidermidis; experiment: Antibacterial activity against methicillin resistant Staphylococcus epidermidis clinical isolate by broth microdilution method; format: functional
[18] = system: Staphylococcus epidermidis; experiment: Antibacterial activity against methicillin resistant Staphylococcus epidermidis clinical isolate assessed as susceptibility level by broth microdilution method; format: functional
Enterococcus faecalis [19] = experiment: Antibacterial activity against vancomycin resistant Enterococcus faecalis VanB clinical isolate by broth microdilution method; format: functional
Streptococcus pneumoniae [20] = experiment: Antibacterial activity against multidrug-resistant Streptococcus pneumoniae clinical isolate by broth microdilution method; format: functional
[21] = system: Streptococcus intermedius; experiment: Antibacterial activity against Streptococcus intermedius clinical isolate by broth microdilution method; format: functional
Streptococcus oralis [22] = experiment: Antibacterial activity against Streptococcus oralis clinical isolate by broth microdilution method; format: functional
Streptococcus mitis [23] = experiment: Antibacterial activity against Streptococcus mitis clinical isolate assessed as susceptibility level by broth microdilution method; format: functional
Staphylococcus aureus [24] = experiment: Antibacterial activity against methicillin resistant Staphylococcus aureus clinical isolate by broth microdilution method; format: functional
Enterococcus faecalis [25] = system: Enterococcus faecalis
Streptococcus viridans [26] = experiment: Antibacterial activity against Streptococcus viridans clinical isolate by broth microdilution method; format: functional
[27] = system: Staphylococcus haemolyticus; experiment: Antibacterial activity against methicillin resistant coagulase-negative Staphylococcus haemolyticus clinical isolate assessed as susceptibility level by broth microdilution method; format: functional
Streptococcus oralis [28] = experiment: Antibacterial activity against Streptococcus oralis clinical isolate assessed as susceptibility level by broth microdilution method; format: functional
Enterococcus faecalis [29] = experiment: Antibacterial activity against vancomycin resistant Enterococcus faecalis VanA clinical isolate assessed as susceptibility level by broth microdilution method; format: functional
[30] = system: Streptococcus constellatus; experiment: Antibacterial activity against Streptococcus constellatus clinical isolate assessed as susceptibility level by broth microdilution method; format: functional
[31] = system: Staphylococcus haemolyticus; experiment: Antibacterial activity against methicillin resistant coagulase-negative Staphylococcus haemolyticus clinical isolate by broth microdilution method; format: functional
Enterococcus faecium [32] = experiment: Antibacterial activity against vancomycin resistant Enterococcus faecium VanB clinical isolate assessed as susceptibility level by broth microdilution method; format: functional
Streptococcus pneumoniae [33] = experiment: Antibacterial activity against penicillin intermediate Streptococcus pneumoniae clinical isolate by broth microdilution method; format: functional
Streptococcus pneumoniae [34] = experiment: Antibacterial activity against penicillin resistant Streptococcus pneumoniae clinical isolate by broth microdilution method; format: functional
Enterococcus faecalis [35] = experiment: Antibacterial activity against vancomycin resistant Enterococcus faecalis VanB clinical isolate assessed as susceptibility level by broth microdilution method; format: functional
[36] = system: Streptococcus intermedius; experiment: Antibacterial activity against Streptococcus intermedius clinical isolate assessed as susceptibility level by broth microdilution method; format: functional
[37] = Antibacterial activity against methicillin resistant coagulase-negative Staphylococcus hominis subsp. novobiosepticus clinical isolate by broth microdilution method; format: functional
Streptococcus mitis [38] = experiment: Antibacterial activity against Streptococcus mitis clinical isolate by broth microdilution method; format: functional
[39] = system: Streptococcus constellatus; experiment: Antibacterial activity against Streptococcus constellatus clinical isolate by broth microdilution method; format: functional
[40] = system: Staphylococcus auricularis; experiment: Antibacterial activity against methicillin resistant coagulase-negative Staphylococcus auricularis clinical isolate assessed as susceptibility level by broth microdilution method; format: functional

For `CCCCCCCCCC(=O)N[C@@H](Cc1c[nH]c2ccccc12)C(=O)N[C@H](CC(N)=O)C(=O)N[C@@H](CC(=O)O)C(=O)N[C@@H]1C(=O)NCC(=O)N[C@@H](CCCN)C(=O)N[C@@H](CC(=O)O)C(=O)N[C@H](C)C(=O)N[C@@H](CC(=O)O)C(=O)NCC(=O)N[C@H](CO)C(=O)N[C@@H]([C@H](C)CC(=O)O)C(=O)N[C@@H](CC(=O)c2ccccc2N)C(=O)O[C@@H]1C`, the MIC50 (Enterococcus faecium [1]) was 2 mg/L (≈ 1.23 µM), the MIC90 (Enterococcus faecium [1]) was 4 mg/L (≈ 2.47 µM) and the Activity (Staphylococcus capitis [2]) was 100%. For the same compound, the Activity (Staphylococcus aureus [3]) was 98%, the Activity (Streptococcus pyogenes [4]) was 100% and the Activity (Enterococcus faecium [5]) was 98%. The Activity (Streptococcus viridans [6]) was 100%, the MIC50 (Enterococcus faecium [7]) was 2 mg/L (≈ 1.23 µM) and the MIC90 (Enterococcus faecium [7]) was 4 mg/L (≈ 2.47 µM). For the same compound, the MIC50 [8] was 0.25 mg/L (≈ 0.154 µM), the MIC90 [8] was 1 mg/L (≈ 0.617 µM) and the MIC50 (Streptococcus agalactiae [9]) was 0.25 mg/L (≈ 0.154 µM). For the same compound, the MIC90 (Streptococcus agalactiae [9]) was 0.25 mg/L (≈ 0.154 µM), the MIC50 (Enterococcus faecalis [10]) was 1 mg/L (≈ 0.617 µM) and the MIC90 (Enterococcus faecalis [10]) was 2 mg/L (≈ 1.23 µM). It also gave an MIC50 (Staphylococcus capitis [11]) of 0.25 mg/L (≈ 0.154 µM), an MIC90 (Staphylococcus capitis [11]) of 1 mg/L (≈ 0.617 µM) and an Activity [12] of 100%. It also gave an Activity (Streptococcus agalactiae [13]) of 100%, an Activity [14] of 100% and an MIC50 [15] of 0.25 mg/L (≈ 0.154 µM). It also gave an MIC90 [15] of 1 mg/L (≈ 0.617 µM), an MIC (Streptococcus pyogenes [16]) of no more than 0.03 mg/L and an MIC50 (Streptococcus pyogenes [16]) of no more than 0.03 mg/L. It also gave an MIC90 (Streptococcus pyogenes [16]) of 0.25 mg/L (≈ 0.154 µM), an MIC50 [17] of 0.5 mg/L (≈ 0.309 µM) and an MIC90 [17] of 1 mg/L (≈ 0.617 µM). For the same compound, the Activity [18] was 100%, the MIC (Enterococcus faecalis [19]) was 0.5 mg/L (≈ 0.309 µM) and the MIC50 (Streptococcus pneumoniae [20]) was 0.12 mg/L (≈ 0.074 µM). The MIC90 (Streptococcus pneumoniae [20]) was 0.12 mg/L (≈ 0.074 µM), the MIC [21] was 0.25 mg/L (≈ 0.154 µM) and the MIC50 [21] was “inactive”. For the same compound, the MIC90 [21] was “inactive”, the MIC (Streptococcus oralis [22]) was 0.25 mg/L (≈ 0.154 µM) and the MIC50 (Streptococcus oralis [22]) was “inactive”. The MIC90 (Streptococcus oralis [22]) was “inactive”, the Activity (Streptococcus mitis [23]) was 100% and the Activity (Staphylococcus aureus [24]) was 98%. The MIC50 (Staphylococcus aureus [24]; Staphylococcus aureus) was 0.25 mg/L (≈ 0.154 µM), the MIC90 (Staphylococcus aureus [24]; Staphylococcus aureus) was 0.5 mg/L (≈ 0.309 µM) and the MIC50 (Enterococcus faecalis [25]) was “inactive”. The MIC90 (Enterococcus faecalis [25]) was “inactive”, the MIC (Streptococcus viridans [26]) was 0.25 mg/L (≈ 0.154 µM) and the MIC50 (Streptococcus viridans [26]) was “inactive”. The MIC90 (Streptococcus viridans [26]) was “inactive”, the Activity [27] was 100% and the Activity (Streptococcus oralis [28]) was 100%. The “Percent of isolates susceptible” value (Enterococcus faecalis [29]) was 100%, the Activity [30] was 100% and the MIC50 [31] was 0.25 mg/L (≈ 0.154 µM). The MIC90 [31] was 1 mg/L (≈ 0.617 µM), the Activity (Enterococcus faecium [32]) was 93% and the MIC50 (Streptococcus pneumoniae [33]) was 0.12 mg/L (≈ 0.074 µM). For the same compound, the MIC90 (Streptococcus pneumoniae [33]) was 0.5 mg/L (≈ 0.309 µM), the MIC50 (Streptococcus pneumoniae [34]) was 0.12 mg/L (≈ 0.074 µM) and the MIC90 (Streptococcus pneumoniae [34]) was 0.12 mg/L (≈ 0.074 µM). The Activity (Enterococcus faecalis [35]) was 100%, the Activity [36] was 100% and the MIC50 [37] was 0.25 mg/L (≈ 0.154 µM). For the same compound, the MIC90 [37] was 1 mg/L (≈ 0.617 µM), the MIC (Streptococcus mitis [38]) was 0.25 mg/L (≈ 0.154 µM) and the MIC50 (Streptococcus mitis [38]) was “inactive”. For the same compound, the MIC90 (Streptococcus mitis [38]) was “inactive”, the MIC [39] was 0.25 mg/L (≈ 0.154 µM) and the MIC50 [39] was “inactive”. For the same compound, the MIC90 [39] was “inactive” and the Activity [40] was 100%.

From ChEMBL document CHEMBL1275440, “In vitro activity of telavancin against resistant gram-positive bacteria” (2008)
